# Reference: US10206901B2, “Method and composition for acute treatment of seizures” (JC Pharma, Inc., priority 2016, dated 2019)
# Legend:
# [1] = tested on: convulsive seizures; experiment: Acute intranasal treatment of convulsive seizures in pediatric human subjects; format: in vivo; conditions: human subjects weighing over 60 lbs
# Procedure: Three male human pediatric subjects, each under the age of 16, undergoing convulsive seizures, were administered from two to four 0.1 ml doses (each dose 5 mg delta-9-tetrahydrocannabinol with 8% by volume linalool) of the product disclosed herein. Administration was achieved via a nasal spray administered within one or more of the subject's nostrils using the delivery device disclosed herein by a caregiver during the occurrence of the convulsive seizure. In subject one, administered 3 doses, a visible state of cessation of the convulsions of the seizure was achieved by 21 seconds from first dose administration. In subject two, administered 4 doses, a visible state of cessation of the convulsions of the seizure was achieved by 36 seconds from first dose administration. In subject three, administered 2 doses, a visible state of cessation of the convulsions of the seizure was achieved by 27 seconds from first dose administration.
# Thus, acute treatment of the convulsive seizure using an average dose of 3×0.1 ml of the 5 mg delta-9-tetrahydrocannabinol with 8% by volume linalool achieved cessation of the convulsion symptom of the convulsive seizure within a mean time of 28 seconds from first dose administration.
# [2] = tested on: rat model of epilepsy; conditions: intraperitoneal injection, cited from earlier work
structure (smiles),measurement,setting,value
"CCCCCc1cc(O)c2c(c1)OC(C)(C)[C@@H]1CCC(C)=C[C@@H]21 [THC, delta-9-tetrahydrocannabinol]",lowest administered THC dose per body weight at which seizures in progress were stopped,[1],around 0.37 mg/kg
same,lowest total administered THC dose at which seizures in progress were treated and stopped,[1],10.0 mg
same,seizure prevention,[2]; 30.0 mg/kg,can prevent seizures from occurring
same,ED50 anticonvulsant effect (seizure prevention),[2],15.0 mg/kg
same,dose at which anticonvulsant effect starts,[2],5.0 mg/kg
